These are literature values, as cited in patent publication US20130345296A1, “Compositions Comprising a Taxane for Coating Medical Devices” (AVIDAL VASCULAR GMBH, priority 2010, published 2013).

Data set [1] concerns microtubules. The conditions noted are these: in vitro studies; Rowinsky et al. (1990).
Data set [2] has as its system leukemia, colon, breast, melanoma, sarcomas, and Lewis lung tumor systems. The conditions noted are these: Tarr et al. (1987); Horwitz (1992).

SMILES strings stand for the structures.

For the compound `CC(=O)O[C@H]1C(=O)[C@@]2(C)[C@H]([C@H](OC(=O)c3ccccc3)[C@]3(O)C[C@H](OC(=O)[C@H](O)[C@@H](NC(=O)c4ccccc4)c4ccccc4)C(C)=C1C3(C)C)[C@]1(OC(C)=O)CO[C@@H]1C[C@@H]2O` [taxol, paclitaxel], in data set [1], the “concentrations of taxol that stabilize microtubules” value is 0.1 to 10.0 µg/mL. Moreover, in data set [2], the “activity against tumor systems” value is recorded as “active”.
